Source: PMC12108418, “Broad-Spectrum Gramicidin S Derivatives with Potent Activity Against Multidrug-Resistant Gram-Negative ESKAPE Pathogens” (Antibiotics, 2025)
In brackets after ≈: the same amount, converted by molar mass. Read-outs that look alike come from different tables or passages of the source. Square brackets hold non-standard residues; d marks the D form. Peptide text beside a SMILES is read from it. Tle = CC(C)(C)[C@H](N)C(=O)O; Orn = NCCC[C@H](N)C(=O)O; Abu = CC[C@H](N)C(=O)O

Experiments:
[1] = test system: Pseudomonas aeruginosa (ATCC 27853); type: cell-based; conditions: ATCC 27853
Method: (§1) The antibacterial efficacy of peptides was assessed using the broth microdilution method in accordance with Clinical and Laboratory Standards Institute (CLSI) guidelines (M07-A10, 2015 [33]). The minimum inhibitory concentrations (MICs) were determined against Escherichia coli (ATCC 25922), Klebsiella pneumoniae (ATCC 33495), Pseudomonas aeruginosa (ATCC 27853), Acinetobacter baumannii (ATCC 19606), and Staphylococcus aureus (ATCC 29213 and ATCC USA300). Bacterial suspensions were standardised to 5 × 10^4 colony-forming units (CFUs)/well in cation-adjusted Mueller–Hinton broth (CAMHB). Peptides were dissolved in 25% DMSO and serially diluted two-fold across 96-well plates, reaching final concentrations ranging from 256 to 0.125 µg/mL. The wells were inoculated, ensuring a final volume of 100 µL per well, with a DMSO concentration of 1% (v/v) to minimise solvent interference. […] Vancomycin was used as the positive control for S. aureus. Polymyxin B served as the positive control for Gram-negative bacteria. CAMHB with 1% (v/v) DMSO (without peptides) was used as the negative control. All experiments were performed in triplicate (n = 3). Bacterial isolates were stored in tryptone soy broth with 30% glycerol at −80 °C for long-term preservation.

[2] = test system: Klebsiella pneumoniae (ATCC 33495); type: cell-based; conditions: ATCC 33495
Method: as §1

[3] = test system: Acinetobacter baumannii (ATCC 19606); type: cell-based; conditions: ATCC 19606
Method: as §1

[4] = test system: Escherichia coli (ATCC 25922); type: cell-based
Method: as §1

[5] = Analytical RP-HPLC retention time as measure of hydrophobicity; type: physicochemical; conditions: measure of global hydrophobicity, Phenomenex Kinetex 2.6 µm C18 (150 × 4.6 mm), 0.7 mL/min, ACN/TFA (100:0.0008) and water/TFA (100:0.001)
Method: Peptide purification was carried out via preparative RP-HPLC on an Agilent 1260 Infinity II system (Santa Clara, CA, USA) equipped with a 21.2 × 150 mm Agilent ZORBAX Eclipse Plus C18 column, operating at a flow rate of 25 mL/min. The mobile phase consisted of acetonitrile containing 0.0008% trifluoroacetic acid (v/v) as the organic phase and water with 0.001% TFA as the aqueous phase. […] Analytical HPLC analysis was performed on a Hewlett-Packard Series 1100 instrument using a Phenomenex (Torrance, CA, USA) Kinetex C18 column (150 mm × 4.6 mm, 2.6 µm particle size), under identical solvent conditions, to confirm purity.
HRMS of peptide 1. […] HRMS of peptide 2. […] HRMS of peptide 3. […] HRMS of peptide 4. […] HRMS of peptide 5. […] HRMS of peptide 6. […] HRMS of peptide 7. […] HRMS of peptide 8. […] HRMS of peptide 9. […] HRMS of peptide 10. […] HRMS of peptide 11. […] HRMS of peptide 12. […] HRMS of peptide 13. […] HRMS of peptide 14. […] HRMS of peptide 15. […] HRMS of peptide 16. […] HRMS of peptide 17. […] HRMS of peptide 18. […] HRMS of peptide 19.

Structure (SMILES) | MIC P. aeruginosa ATCC 27853 [1] [µg/mL] | MIC K. pneumonia ATCC 33495 [2] [µg/mL] | MIC A. baumannii ATCC 19606 [3] [µg/mL] | MIC E. coli ATCC 25922 ([4]; ATCC 25922) [µg/mL] | RP-HPLC retention time tR [5] [min] | MIC E. coli ATCC 25922 ([4]; broth microdilution in CAMHB, 5 × 10^4 CFU/well, 1% DMSO, 37 °C, 16–20 h, 256 to 0.125 µg/mL, triplicate (n = 3)) [µg/mL]
CC[C@@H]1NC(=O)[C@@H]2CCCN2C(=O)[C@@H](CCCNC(=N)N)NC(=O)[C@H](CC(C)C)NC(=O)[C@H](CCCN)NC(=O)[C@H](CC)NC(=O)[C@@H]2CCCN2C(=O)[C@@H](Cc2ccccc2)NC(=O)[C@H](CC(C)C)NC(=O)[C@H](CCCNC(=N)N)NC1=O [Peptide 18] (cyclo([Abu][Orn]L[dR]P[Abu]RL[dF]P)) | 128 (≈ 110 µM) | 64 (≈ 55 µM) | 32 (≈ 27.5 µM) | 64 (≈ 55 µM) | 16.03 | –
CC(C)C[C@@H]1NC(=O)[C@H](CCCN)NC(=O)[C@H](C(C)(C)C)NC(=O)[C@@H]2CCCN2C(=O)[C@@H](Cc2ccccc2)NC(=O)[C@H](CC(C)C)NC(=O)[C@H](CCCN)NC(=O)[C@H](C(C)(C)C)NC(=O)[C@@H]2CCCN2C(=O)[C@@H](CCCNC(=N)N)NC1=O [Peptide 19] (cyclo(L[dF]P[Tle][Orn]L[dR]P[Tle][Orn])) | 16 (≈ 13.6 µM) | 32 (≈ 27.2 µM) | 4 (≈ 3.39 µM) | 16 (≈ 13.6 µM) | 17.15 | –
CC(C)C[C@@H]1NC(=O)[C@H](CCCN)NC(=O)[C@H](C(C)C)NC(=O)[C@@H]2CCCN2C(=O)[C@@H](Cc2ccccc2)NC(=O)[C@H](CC(C)C)NC(=O)[C@H](CCCN)NC(=O)[C@H](C(C)C)NC(=O)[C@H](Cc2c[nH]c3ccccc23)NC(=O)[C@@H](CCCNC(=N)N)NC1=O [Peptide 8] (cyclo(L[dF]PV[Orn]L[dR]WV[Orn])) | 32 (≈ 25.8 µM) | 16 (≈ 12.9 µM) | 8 (≈ 6.45 µM) | – | – | 8 (≈ 6.45 µM)
CC(C)C[C@@H]1NC(=O)[C@H](CCCN)NC(=O)[C@H](C(C)C)NC(=O)[C@@H]2CCCN2C(=O)[C@@H](Cc2ccccc2)NC(=O)[C@H](CC(C)C)NC(=O)[C@H](CCCN)NC(=O)[C@H](C(C)C)NC(=O)[C@@H]2CCCN2C(=O)[C@@H](CCCNC(=N)N)NC1=O [Peptide 9] (cyclo(L[dF]PV[Orn]L[dR]PV[Orn])) | 32 (≈ 27.8 µM) | 16 (≈ 13.9 µM) | 8 (≈ 6.95 µM) | 16 (≈ 13.9 µM) | – | –
CC(C)C[C@@H]1NC(=O)[C@H](CCCN)NC(=O)[C@H](C(C)(C)C)NC(=O)[C@@H]2CCCN2C(=O)[C@@H](Cc2ccccc2)NC(=O)[C@H](CC(C)C)NC(=O)[C@H](CCCN)NC(=O)[C@H](C(C)C)NC(=O)[C@@H]2CCCN2C(=O)[C@@H](Cc2ccccc2)NC1=O [Peptide 12] (cyclo(L[dF]P[Tle][Orn]L[dF]PV[Orn])) | 128 (≈ 111 µM) | 128 (≈ 111 µM) | 8 (≈ 6.92 µM) | 32 (≈ 27.7 µM) | – | –
CC(C)C[C@@H]1NC(=O)[C@H](CCCN)NC(=O)[C@H](C(C)C)NC(=O)[C@@H]2CCCN2C(=O)[C@@H](CCCNC(=N)N)NC(=O)[C@H](CC(C)C)NC(=O)[C@H](CCCN)NC(=O)[C@H](C(C)C)NC(=O)[C@H](Cc2c[nH]c3ccccc23)NC(=O)[C@@H](Cc2ccccc2)NC1=O [Peptide 10] (cyclo(L[dF]WV[Orn]L[dR]PV[Orn])) | 32 (≈ 25.8 µM) | 32 (≈ 25.8 µM) | 8 (≈ 6.45 µM) | 16 (≈ 12.9 µM) | – | –
